We go through 2 compounds from patent US20100297194A1, “FORMULATION FOR ORAL ADMINISTRATION OF APOPTOSIS PROMOTER” (priority 2009, published 2010).

The bioavailability is the share of a dose that reaches the circulation, judged against a reference dose that is usually intravenous.

Where two headings read alike, the source gives them in different places.

A short description of data set [1]: oral bioavailability in a rat model. The settings on record: in vivo, in 90% phosphatidylcholine+medium chain triglycerides 53/29 and 10% ethanol.
The nature of data set [2]: drug solubility in ternary excipient systems (Example 2). The data set is classed as physicochemical. Details: key: ✓: vehicle miscible, or drug fully dissolved in vehicle; X: vehicle immiscible or miscible but turbid, or residual solids present (due to undissolved drug or precipitation). The settings on record: 10% salt, 20% free base, listed as ABT-263 free base. An excerpt:
Solvents evaluated included Labrafil M 1944 CS™, Imwitor 742™ oleic acid, Capmul PG-8™, Capmul PG-12™, Lauroglycol 90™ and Phosal 53 MCT™. Surfactants evaluated included Tween™ 80, Cremophor RH40™, Gelucire 44/14™ and Labrasol™.

For data set [3] the following is noted: rat; 2 mg/ml solution in PEG-400/DMSO; cited from earlier work.
Data set [4] is described as follows: solubility in lipid solvents (Example 1).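 Further: solubility in mg/g.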 Type of data set: physicochemical. The settings on record: ambient conditions. The procedure:
Solubility of ABT-263 parent (free base, crystalline Form I) and ABT-263 bis-HCl salt was tested in a variety of lipid solvents and solvent mixtures in ambient conditions. “PE-91” is Phosal 53 MCT™+ethanol, 9:1 by volume. “LOT-343” is Labrafil M 1944 CS™+oleic acid+Tween 80™, 30:40:30 by weight.
In some cases, indicated in Table 4 by an asterisk (*), solubility was initially high but precipitation occurred upon standing.

For data set [5] the following is noted: monkey; similar solution in PEG-400/DMSO; cited from earlier work.

`CN(C)CC[C@H](CSc1ccccc1)Nc1ccc(S(=O)(=O)NC(=O)c2ccc(N3CCN(Cc4ccccc4-c4ccc(Cl)cc4)CC3)cc2)cc1[N+](=O)[O-]` [ABT-737, N-(4-(4-((4′-chloro-(1,1′-biphenyl)-2-yl)methyl)piperazin-1-yl)benzoyl)-4-(((1R)-3-(dimethylamino)-1-((phenylsulfanyl)methyl)propyl)amino)-3-nitrobenzenesulfonamide] displayed a bioavailability in data set [1] of 3.3%.
On to `CC1(C)CCC(c2ccc(Cl)cc2)=C(CN2CCN(c3ccc(C(=O)NS(=O)(=O)c4ccc(N[C@H](CCN5CCOCC5)CSc5ccccc5)c(S(=O)(=O)C(F)(F)F)c4)cc3)CC2)C1` [ABT-263, N-(4-(4-((2-(4-chlorophenyl)-5,5-dimethyl-1-cyclohex-1-en-1-yl)methyl)piperazin-1-yl)benzoyl)-4-(((1R)-3-(morpholin-4-yl)-1-((phenylsulfanyl)methyl)propyl)amino)-3-((trffluoromethyl)sulfonyl)benzene-sulfonamide], for which the ABT-263 solubility result in data set [2] (ILC (Imwitor 742/Labrafil M 1944 CS/Cremophor RH40) 50:40:10 by weight), in data set [2] (ILC (Imwitor 742/Labrafil M 1944 CS/Cremophor RH40) 60:30:10 by weight), in data set [2] (ILL (Imwitor 742/Labrafil M 1944 CS/Labrasol) 40:40:20 by weight), in data set [2] (ILL (Imwitor 742/Labrafil M 1944 CS/Labrasol) 50:30:20 by weight), in data set [2] (ILL (Imwitor 742/Labrafil M 1944 CS/Labrasol) 50:40:10 by weight) and in data set [2] (ILL (Imwitor 742/Labrafil M 1944 CS/Labrasol) 60:30:10 by weight) was “X” each time. For the same compound, the ABT-263 solubility result in data set [2] (LIT (Labrafil M 1944 CS/Imwitor 742/Tween 80) 30:40:30 by weight), in data set [2] (LIT (Labrafil M 1944 CS/Imwitor 742/Tween 80) 40:30:30 by weight), in data set [2] (LLL (Lauroglycol 90/Labrafil M 1944 CS/Labrasol) 50:40:10 by weight) and in data set [2] (LLL (Lauroglycol 90/Labrafil M 1944 CS/Labrasol) 60:30:10 by weight) was “X” throughout. In addition, the oral bioavailability result in data set [3] and in data set [5] was “around 20%” each time. Also, the Solubility in data set [4] (in Cremophor RH40) was more than 226 mg/g; in data set [4] (in LOT-343 (Labrafil M 1944 CS+oleic acid+Tween 80 30:40:30 by weight)), more than 479 mg/g; in data set [4] (in Labrafil M 1944 CS, listed as ABT-263 parent), more than 265 mg/g; in data set [4] (in Labrafil M 2125 CS, listed as ABT-263 parent), more than 290 mg/g; in data set [4] (in Labrasol, listed as ABT-263 parent), more than 242 mg/g; in data set [4] (in Lipoid S75 MCT, listed as ABT-263 parent), 150 to 200 mg/g. The Solubility in data set [4] (in Miglyol 810, listed as ABT-263 parent) is listed as less than 76 mg/g; in data set [4] (in PE-91 (Phosal 53 MCT+ethanol 9:1 by volume), listed as ABT-263 parent) it was more than 250 mg/g; in data set [4] (in PEG-400, listed as ABT-263 parent) it was more than 200 mg/g; in data set [4] (in Phosal 53 MCT) it was more than 300 mg/g; in data set [4] (in Tween 20, listed as ABT-263 parent) it was more than 256 mg/g; in data set [4] (in Tween 80, listed as ABT-263 parent), more than 256 mg/g. Further, the Solubility in data set [4] (in corn oil, listed as ABT-263 parent) is reported as less than 86 mg/g; in data set [4] (in oleic acid, listed as ABT-263 parent), more than 514 mg/g; in data set [4] (in poloxamer 124, listed as ABT-263 parent), more than 231 mg/g; in data set [4] (in sesame oil, listed as ABT-263 parent), less than 75 mg/g.
